Measurements reported in a melting point compilation (Tetko et al.; mined from patent text by program, amines drawn as free bases though some values may be those of a salt).

Row | SMILES | melting point
1 | CCOc1cc2nc(S(=O)c3ccccc3-c3ccccn3)[nH]c2cc1OCC (configuration not stated) | 194 to 195 °C
2 | O=C(Nc1ccc(Cl)c(Cl)c1)c1cc(Br)ccc1O | 249 to 251 °C
3 | O=C(NC1CCCc2cc(C(=O)Nc3ccncc3)ccc21)OCc1ccccc1 (configuration not stated) | 157 to 159 °C
4 | CCN(CC)C(=O)CO/N=C(\C(=O)O)c1csc(N)n1 | 180 °C
5 | Clc1cc(-c2c(-c3ccccc3)nn3ccccc23)ccn1 | 167 to 168 °C
6 | Cc1ccc(NC(=O)C(N)c2ccc3c(c2)C(C)(C)CCC3(C)C)cc1 (configuration not stated) | 161 to 163 °C
7 | CC(C)N(C1CCCCC1)S(=O)(=O)N[C@@H](Cc1ccc(Oc2nccc3cnccc23)cc1)C(=O)O | 138 °C
8 | O=[N+]([O-])c1ccc(C2=NNC(CO)Cc3cc4c(cc32)OCO4)cc1 (configuration not stated) | 132 to 134 °C
9 | O=C(Nc1ccc(Cl)cc1)O[C@H]1COC(c2ccccc2)=N[C@@H]1c1ccccc1 (racemic) | 200 °C
10 | COc1cc(F)ccc1C(O)C1CCCCn2c1nc(-c1ccncn1)cc2=O (racemic) | 235 to 237 °C
11 | COC(=O)CCCC(=O)c1ccc(OC)c(CCC(=O)OC)n1 | 64 to 66 °C
12 | CC1(C)Oc2ccc(C#N)cc2C2C1OC(=O)CN2c1ccccc1 (configuration not stated) | 241 to 243 °C
13 | COC(=O)N(C(=O)c1ccc(C2=NOC(c3cc(Cl)cc(Cl)c3)(C(F)(F)F)C2)cc1C)c1cncnc1 (configuration not stated) | 72 to 76 °C
14 | O=C1c2ccccc2C(=O)N1Cc1cn2ccccc2n1 | 230 to 232 °C
15 | CNC(=O)Oc1c(C)ccc2c1CC(C)C2(C)C (configuration not stated) | 110 °C
16 | COc1cc2[nH]c(C(=O)OCc3ccccc3)cc2c(C)c1C | 161 °C
17 | CC(=O)c1ccc2c(c1)[C@@H](O)[C@H](Br)C(C)(C)O2 (relative stereo) | 84 to 86 °C
18 | CC(=O)OC1(Cc2ccccn2)C(=O)N(N2CCOCC2)c2ccccc21 (configuration not stated) | 107 to 110 °C
19 | CCCCCCCCCCNC(=O)c1ccc(C(=O)NCCCCCCCCCC)c(N(CC(=O)OC)CC(=O)OC)c1 | 76 to 78 °C
20 | Cc1c(-c2ccccc2)[nH]c(=O)n1C1CCN(Cc2cccc3c2OCO3)CC1 | 244 to 245 °C
21 | CCCCc1cn(Cc2ccc(-c3ccccc3C(=O)OC)cc2)c2cc(CO)ccc2c1=O | 140 °C
22 | COC(Cc1c(Br)cc(Br)c(C(N)=O)c1Br)C(=O)O (configuration not stated) | 138 to 139 °C
23 | CC(C)(C(C#N)=NO)S(C)(=O)=O | 139 to 141 °C
24 | COc1ccc2[nH]cc(CC(C)(C)[N+](=O)[O-])c2c1 | 83 to 85 °C
25 | CC(=O)NCCOC(c1ccc(F)cc1)c1ccc(F)cc1 | 112 to 114 °C

Row | SMILES | melting point
26 | CCN(CC)CCNC(=O)c1cc(Cl)c(N)cc1OCC(C)=O | 105 to 106 °C
27 | Oc1cc(O)cc(/C=C/c2ccccc2)c1 | 157 to 158 °C
28 | Cc1ccc(C(=O)C2=C(O)C(=O)N(c3ccc(C)nn3)C2c2ccc(OCCN(C)C)cc2)cc1 (configuration not stated) | 263 to 266 °C
29 | Cc1nc2ccccc2c(=O)n1CCO | 159 to 160 °C
30 | CCCCCCOc1ccc(-c2nccc(-c3cccc(F)c3F)n2)cn1 | 110 °C
31 | CCOCn1c(Oc2ccccc2)c(CC)c(=O)[nH]c1=O | 130 to 131 °C
32 | O=C(c1c(F)cccc1F)N1COCN(c2ccc(S(=O)(=O)C(F)F)cc2F)C1=O | 210 to 213 °C
33 | O=C(Nc1ccccc1Cl)C1CN(C(=O)Nc2ccc(C(F)(F)F)cc2)N=C1c1ccc(Cl)cc1 (configuration not stated) | > 200 °C
34 | O=C(NCCn1ccnc1)c1cc(N2CC2)c([N+](=O)[O-])cc1[N+](=O)[O-] | > 250 °C
35 | CNC(=S)C1(c2cccc([N+](=O)[O-])c2)CCCCC1=O (configuration not stated) | 128 to 132 °C
36 | COc1cc(C)c2c(c1)[C@@H]1c3ccccc3N[C@@H]1C2 (relative stereo) | 104 °C
37 | Nc1cccc(-c2ccc(Cl)nn2)c1 | 118 to 121 °C
38 | COc1ccc(COc2cc3c(cc2-c2cc(C=CC(=O)O)ccc2O)C(C)(C)CCC3(C)C)cc1 | 170 to 172 °C
39 | Cn1c(C(F)(F)F)cc(=O)n(-c2ccc3snc(-c4sccc4CO)c3c2)c1=O | 168 to 169 °C
40 | Cc1cccc2nc(C(C)Nc3ncnc4c3ncn4COCC[Si](C)(C)C)n(-c3cccc(C(N)=O)c3)c(=O)c12 (configuration not stated) | 195 to 197 °C
41 | CC(=O)OCCNC(=O)NCc1ccc(-c2csc(N=C(N)N)n2)o1 | 200 to 202 °C
42 | Nc1ncc(C#Cc2ccccc2)c(NCCOCCO)n1 | 128 to 129 °C
43 | COC(=O)CCCc1cc2cc(Cl)ccc2n1S(=O)(=O)c1cccc(Cl)c1Cl | 115 to 117 °C
44 | CCNC(=O)NCC1CC1c1cccn2nc(C)cc12 (configuration not stated) | 108 to 110 °C
45 | C=Cc1c(N)cc(Cl)nc1C(=O)OC | 53 to 54 °C
46 | O=C(O)CCCC(=O)c1ccc(O)c(O)c1 | 210 to 215 °C
47 | Cn1nccc1OCc1c(S(C)(=O)=O)ccc(C(=O)C2C(=O)CC(C)(C)CC2=O)c1Cl | 82 °C
48 | CC(C)OC(=O)C(C)Oc1ccc(COc2ccc(Cl)cc2)cc1 (configuration not stated) | 81 °C
49 | CCCCCCC(C)(C)c1cc(OCc2ccccc2)c(C2=C(C(C)(C)C#N)CCC(C)C2)c(OCc2ccccc2)c1 (configuration not stated) | 65 to 66 °C
50 | Cc1cc2c(cc1OCc1ccccc1)OC[C@@H](N1CCC(O)(c3ccc(F)cc3)CC1)[C@H]2O (relative stereo) | 201 to 202 °C

Row | SMILES | melting point
51 | CCN1CC(NC(=O)Nc2cc(Cl)cc(Cl)c2)CN1CC | 165 to 167 °C
52 | CCOC(=O)COc1ccc(CN2C(=O)C3(COc4cc5c(cc43)CCO5)c3ccccc32)cc1 (configuration not stated) | 158 to 159 °C
53 | CCc1noc(-c2cn(-c3c(OCc4ccccc4)cccc3OCc3ccccc3)cn2)n1 | 149 to 150 °C
54 | CC(C)(C)S(=O)c1cccc(F)c1C(=O)NCCCl (configuration not stated) | 80 to 90 °C
55 | CC(C)OC(=O)c1ccc2c(c1)ncn2-c1cccc(N2CCN(C)CC2)c1 | 173 to 174 °C
56 | Cc1cccc(NC(=O)NCC(=O)N(CC(=O)OC(C)(C)C)c2ccccc2F)c1 | 148 °C
57 | FCCOc1ccc(COCc2ccc(Cl)cc2)cc1 | 43 to 43.7 °C
58 | Sc1nnnn1CCCc1ccccc1 | 75 to 76 °C
59 | Nc1ccc2nc(-c3ccc(Cl)cc3)sc2c1 | 166 to 168 °C
60 | CC(SC1COC(c2ccc(C(=O)Nc3c(F)c(F)c(C#N)c(F)c3F)cc2)OC1)C(O)(Cn1cncn1)c1ccc(F)cc1F (configuration not stated) | 182 °C
61 | Cc1onc(-c2ccc(Cl)cc2)c1CCC(=O)O | 187 to 188 °C
62 | CCCCn1cc([N+](=O)[O-])c(=O)c2cnc(-c3ccncc3)nc21 | 240 to 241 °C
63 | CC(C)c1cccc(C(C)C)c1N=c1cccc(-c2ccccc2)[nH]1 | 142 to 144 °C
64 | COCCOc1cc2c(cc1-c1ccc(F)cc1)NC(=O)CC(c1cccc(-n3ccnc3)c1)=N2 | 196 to 197 °C
65 | COC(=O)c1csc(NC(=O)c2ccc(C#N)cc2)n1 | 228 °C
66 | Cc1ccc2c(c1)c(N1CCNCC1)c(C#N)c(=O)n2C | 274 °C
67 | CS(=O)(=O)N1CCC(CO)CC1 | 96 to 97 °C
68 | CC(CN1CCCC1)Oc1ccccc1CC(=O)N1CC2C(C1)C(c1ccccc1)(c1ccccc1)CCS2=O (racemic) | 126 °C
69 | CN1CCC(NC(=O)c2cccc3nc(-c4ccccc4)oc23)CC1 | 209 to 210 °C
70 | Cc1ccc(NCc2ccc(N(C)C)cc2)c(C)c1 | 79 to 80 °C
71 | CCO/C=C/C(=O)Nc1cccc(Br)c1OC | 102 to 104 °C
72 | CC(C)c1cccc(C(C)C)c1NC(=O)NCC1(Nc2ccc(-c3ccccc3)cc2)CCCC1 | 198 °C
73 | O=C(c1ccccc1F)c1cc2c(c(Cl)c1Cl)OC(CO)C2 (configuration not stated) | 148 to 150 °C
74 | COc1ccc2c(c1)N(CCCCl)c1cccc(S(=O)(=O)N(C)C)c1S2 | 124 to 126 °C
75 | N#Cc1cnc2sc(I)cc2c1Nc1cccc2cc[nH]c12 | > 245 °C

Row | SMILES | melting point
76 | O=C(O)CCCCOc1cccc(CNC(=O)C2Cc3ccccc3N2S(=O)(=O)c2ccc(-c3cccc(C(F)(F)F)c3)cc2)c1 (configuration not stated) | 70 °C
77 | CCOC(=O)c1cnn2c1nc(N(CC)CC)c1cnc3c(cnn3CC)c12 | 170 to 172 °C
78 | ClCCCCCOc1ccccc1OCCCCCCl | 61 °C
79 | CCCCc1nn(-c2cc(NC(=O)OCCC)ccc2Cl)c(=O)n1Cc1ccc(-c2ccccc2S(=O)(=O)NC(=O)c2ccccc2Cl)cc1 | > 119 °C
80 | CC(C)(C)c1cc(C(=O)c2cccs2)cc2c1OCC2(C)C | 103 to 105 °C
81 | CC(C)(CO)Nc1nc(-c2cccc(Br)c2)cs1 | 116 to 120 °C
82 | COc1cc2ncnc(N3CCC(C(O)CN4CCC(C)NS4(=O)=O)CC3)c2cc1OC (configuration not stated) | 189 to 193 °C
83 | CS(=O)(=O)N1CCC(Nc2nc(Nc3cccc(C(F)(F)F)c3)nc(OCc3ccccn3)n2)CC1 | 160 to 162 °C
84 | CCc1[nH]c(=O)n(-c2cc(C(=O)OC(C)C)c(Cl)cc2F)c(=O)c1C | 192 to 194 °C
85 | c1ccc2c(c1)Cn1c(cc3ccccc31)CN2 | 176 to 177 °C
86 | NC(=O)C(CCCC(NC(=O)OCc1ccccc1)C(=O)O)NC(=O)OCc1ccccc1 (configuration not stated) | 145 to 150 °C
87 | COc1cc(Nc2c(C#N)cnc3cc4cc(OCCn5nccn5)c(OC)cc4cc23)c(Cl)cc1Cl | 285 to 287 °C
88 | Cn1c2cc(C(F)(F)F)ccc2c2oc(C(=O)Cl)cc21 | 155 to 156 °C
89 | CONC(c1ccccc1)c1cc(C(C)(C)C)c(O)c(C(C)(C)C)c1 (configuration not stated) | 135 to 137 °C
90 | CC(C)(C)C(O)C(Cn1ccnc1)Oc1ccc(Cl)cc1 (configuration not stated) | 163 to 170 °C
91 | CCCCCCCCOc1ccc(-c2ncc(-c3ccc(CCCCCCCC)cc3)cn2)c(F)c1 | 75 °C
92 | CC(C)(C)C(=O)Nc1cc(Cl)c([N+](=O)[O-])cc1Cl | 142 to 145 °C
93 | CCOC(=O)c1c(C)[nH]c(C)c1CC | 105 to 107 °C
94 | CCCCCCCCCCCc1nnc2n1-c1ccccc1C(c1ccccc1)=NC2 | 76 to 77 °C
95 | O=C(Nc1ccc(-n2nc(C(F)(F)F)cc2OC(F)F)cc1)c1cccnc1F | 149 to 150 °C
96 | CCC(=O)N1CCC(CC(=O)N2CCC([C@H]3c4ncc(Br)cc4CCc4cc(Cl)cc(Br)c43)CC2)CC1 | 124 °C
97 | CC(C)(C)C(=O)NNc1ccc([N+](=O)[O-])cc1Br | 145 °C
